# Data published in US8759519B2, “Mono-hydrochloric salts of an inhibitor of histone deacetylase” (Janssen Pharmaceutica NV, priority 2007, dated 2014).
# Where a name gives a salt, the structure may show the parent alone. Read-outs that look alike come from different tables or passages of the source.
# Tests used:
# Type in all cases: physicochemical
# [1] = Aqueous solubility in solvents with different pH; settings: 20° C., read-out: Solubility (mg/ml solution)
# Method: Aqueous solubilities of Form I were measured in solvents with different pH. An excess of the solute was equilibrated with the solvent at 20° C. for 24 hours. After removing the undissolved compound, the concentration in solution was determined using UV spectrometry.
# [2] = Crystallographic stability after storage in open conditions (TGA, DSC, XRPD, IR); design: key to XRD / IR: ~Ref: identical with reference; Cryst.: crystalline; settings: for IR / XRD: Table E
# Method: The stability of the crystal structure of Form I was studied after storage of the compound in open conditions for a period of six weeks at room temperature (RT) under <5%, 56% and 75% relative humidity (RH), 50° C. and 40° C./75% RH.
# The samples are analyzed with thermogravimetry (TGA), differential scanning calorimetry (DSC), X-ray powder diffraction (XRPD) and infrared spectroscopy (IR).
# The stability of the crystal structure of Form II was studied after storage of the compound in open conditions for a period of six weeks at room temperature (RT) under <5%, 56% and 75% relative humidity (RH), 50° C. and 40° C./75% RH.
# The samples were analyzed with thermogravimetry (TGA), differential scanning calorimetry (DSC), X-ray powder diffraction (XRPD) and infrared spectroscopy (IR).
# [3] = Adsorption/desorption of water (dynamic vapor sorption); settings: 25° C., hydrochloride
# Method: The ADS/DES data were obtained using a SMS dynamic vapor sorption model DVS-1 and the weight change was recorded with tespect to the atmospheric humidity at 25° C. The weight of the samples was about 17 mg of Form I and 24 mg of Form II. The samples were dried for 60 min under dry nitrogen. The equilibrium was lower or equal to 0.01%/min. for minimal 15 min and maximal 60 min. The data interval was 0.05% or 2.0 min.
# Relative Humidity (%) measurement points were:
# The adsorption and desorption of water at 25° C. at different conditions of relative humidity was investigated on 17 mg Form I.
# The weight change as a function of relative humidity was registered.
# The adsorption and desorption of water at 25° C. at different conditions of relative humidity was investigated on about 24 mg Form II
# [4] = Chemical stability after storage in open conditions (HPLC, visual inspection); settings: for Appearance / HPLC Sum of impurities: hydrochloride
# Method: Form I was stored in different open conditions for periods of 1, 4 and 8 weeks.
# These conditions are 40° C./75% RH, 50° C., RT/<5% RH, RT/56% RH, RT/75% RH and 0.3 da ICH light.
# The compounds were analyzed after storage by HPLC and by visual inspection.
# Form II was stored in different open conditions for periods of 1, 4 and 8 weeks. These conditions were 40° C./75% RH, 50° C., RT/<5% RH, RT/56% RH, RT/75% RH and 0.3 da ICH light.
# [5] = 0 days (reference), hydrochloride
# [6] = six weeks open, 40° C./75% RH, hydrochloride
# [7] = six weeks open, 50° C., hydrochloride
# [8] = six weeks open, RT/56% RH, hydrochloride
# [9] = six weeks open, RT/75% RH, hydrochloride
# [10] = six weeks open, RT/<5% RH, hydrochloride
compound,measurement,setting,value
"Cn1cc(CNCC2CCN(c3ncc(C(=O)NO)cn3)CC2)c2ccccc21 [Form I, N-hydroxy-2-[4-[[[(1-methyl-1H-indol-3-yl)methyl]amino]methyl]-1-piperidinyl]-5-pyrimidinecarboxamide hydrochloride]",solubility thermodynamic at 24 h,"[1]; aqueous buffer, 0.001N HCl (pH 2.9)",1.5 mg/mL
same,solubility thermodynamic at 24 h,"[1]; aqueous buffer, 0.01N HCl (pH 2.0)",1.4 mg/mL
same,solubility thermodynamic at 24 h,"[1]; aqueous buffer, Buffer pH 2 (citric acid/NaOH/HCl) (pH 2.0)",0.95 mg/mL
same,solubility thermodynamic at 24 h,"[1]; aqueous buffer, Buffer pH 4 (citric acid/HCl/NaOH) (pH 3.9)",1.2 mg/mL
same,solubility thermodynamic at 24 h,"[1]; aqueous buffer, Buffer pH 6 (citric acid/NaOH) (pH 6.0)",1.5 mg/mL
same,solubility thermodynamic at 24 h,"[1]; aqueous buffer, Buffer pH 8 (boric acid/HCl/NaOH) (pH 7.8)",1.3 mg/mL
same,solubility thermodynamic at 24 h,"[1]; aqueous buffer, Buffer pH 10 (boric acid/KCl/NaOH) (pH 9.8)",1.3 mg/mL
same,solubility thermodynamic at 24 h,[1]; water (pH 4.5),1.4 mg/mL
same,DSC Exotherm Max (° C.),[2]; 0 days (reference),216.8 °C
same,TGA <200° C.,[2]; 0 days (reference),0.9%
same,App (appearance),[2]; [5],Beige-gray
same,TGA <100° C.,[2]; [5],0.4%
same,IR,"[2]; six weeks open, 40° C./75% RH",~Ref
same,XRD,"[2]; six weeks open, 40° C./75% RH",~Ref
same,IR,"[2]; six weeks open, 50° C.",~Ref
same,XRD,"[2]; six weeks open, 50° C.",~Ref
same,IR,"[2]; six weeks open, RT/56% RH",~Ref
same,XRD,"[2]; six weeks open, RT/56% RH",~Ref
same,IR,"[2]; six weeks open, RT/75% RH",~Ref
same,XRD,"[2]; six weeks open, RT/75% RH",~Ref
same,IR,"[2]; six weeks open, RT/<5% RH",~Ref
same,XRD,"[2]; six weeks open, RT/<5% RH",~Ref
same,crystallographic stability (conclusion),"[2]; six weeks open storage under the different conditions, hydrochloride",crystallographically stable
same,DSC Exotherm Max (° C.),"[2]; six weeks open, 40° C./75% RH",216.9 °C
same,TGA <200° C.,"[2]; six weeks open, 40° C./75% RH",0.3%
same,App (appearance),[2]; [6],Beige-gray
same,TGA <100° C.,[2]; [6],1%
same,DSC Exotherm Max (° C.),"[2]; six weeks open, 50° C.",216.9 °C
same,TGA <200° C.,"[2]; six weeks open, 50° C.",0.3%
same,App (appearance),[2]; [7],Beige-gray
same,TGA <100° C.,[2]; [7],0.5%
same,DSC Exotherm Max (° C.),"[2]; six weeks open, RT/56% RH",216.9 °C
same,TGA <200° C.,"[2]; six weeks open, RT/56% RH",0.4%
same,App (appearance),[2]; [8],Beige-gray
same,TGA <100° C.,[2]; [8],0.5%
same,DSC Exotherm Max (° C.),"[2]; six weeks open, RT/75% RH",217.0 °C
same,TGA <200° C.,"[2]; six weeks open, RT/75% RH",0.4%
same,App (appearance),[2]; [9],Beige-gray
same,TGA <100° C.,[2]; [9],0.9%
same,DSC Exotherm Max (° C.),"[2]; six weeks open, RT/<5% RH",216.7 °C
same,TGA <200° C.,"[2]; six weeks open, RT/<5% RH",0.5%
same,App (appearance),[2]; [10],Beige-gray
same,TGA <100° C.,[2]; [10],0.8%
same,hygroscopic behavior,[3]; adsorption/desorption test,no hygroscopic behavior
same,water adsorbed at high relative humidity,[3]; high relative humidity,up to 0.6%
same,crystallinity during the adsorption/desorption test,[3],remained crystalline
same,Appearance,[4]; 0.3 da ICH light (1 week),beige-gray
same,HPLC Sum of impurities,[4]; 0.3 da ICH light (1 week),4.58%
same,Appearance,"[4]; 40° C./75% RH, 1 week",beige-gray
same,HPLC Sum of impurities,"[4]; 40° C./75% RH, 1 week",3.31%
same,Appearance,"[4]; 40° C./75% RH, 4 weeks",beige-gray
same,HPLC Sum of impurities,"[4]; 40° C./75% RH, 4 weeks",3.13%
same,Appearance,"[4]; 40° C./75% RH, 8 weeks",beige-gray
same,HPLC Sum of impurities,"[4]; 40° C./75% RH, 8 weeks",3.59%
same,Appearance,"[4]; 50° C., 1 week",beige-gray
same,HPLC Sum of impurities,"[4]; 50° C., 1 week",3.19%
same,Appearance,"[4]; 50° C., 4 weeks",beige-gray
same,HPLC Sum of impurities,"[4]; 50° C., 4 weeks",3.2%
same,Appearance,"[4]; 50° C., 8 weeks",beige-gray
same,HPLC Sum of impurities,"[4]; 50° C., 8 weeks",3.16%
same,Appearance,"[4]; RT/56% RH, 4 weeks",beige-gray
same,HPLC Sum of impurities,"[4]; RT/56% RH, 4 weeks",3.27%
same,Appearance,"[4]; RT/56% RH, 8 weeks",beige-gray
same,HPLC Sum of impurities,"[4]; RT/56% RH, 8 weeks",3.15%
same,Appearance,"[4]; RT/75% RH, 4 weeks",beige-gray
same,HPLC Sum of impurities,"[4]; RT/75% RH, 4 weeks",3.43%
same,Appearance,"[4]; RT/75% RH, 8 weeks",beige-gray
same,HPLC Sum of impurities,"[4]; RT/75% RH, 8 weeks",3.39%
same,Appearance,"[4]; RT/<5% RH, 4 weeks",beige-gray
same,HPLC Sum of impurities,"[4]; RT/<5% RH, 4 weeks",3.42%
same,Appearance,"[4]; RT/<5% RH, 8 weeks",beige-gray
same,HPLC Sum of impurities,"[4]; RT/<5% RH, 8 weeks",3.16%
same,Appearance,[4]; Reference (1 week),beige-gray
same,HPLC Sum of impurities,[4]; Reference (1 week),3.14%
same,sensitivity towards light (sum of impurities),[4]; storage in 0.3 da ICH light conditions,showed a sensitivity towards light
